From BindingDB's records for doi:10.1016/j.bmcl.2006.08.060 (Lucknow University, 2006)

Tested on: Enterococcus faecalis
Assay: Antibacterial activity against Streptococcus faecalis by broth microdilution technique

Compound: CNC(C)[C@@H]1CC[C@@H](N)[C@@H](O[C@H]2[C@H](O)[C@@H](O[C@H]3OC[C@](C)(O)[C@H](NC)[C@H]3O)[C@H](N)C[C@@H]2N)O1 (stereo partly specified) [Gentamicin]
- IC50: 445 nM
